How the values were obtained:
[1] = tested on: A549 cells; experiment: Growth inhibition of siRNA-transfected A549 cells, SYBR Green I DNA content; type: cell-based, human; details: 10 nM siRNA, DNA content 96 hours after transfection; for Growth Inhibition in A549 cells by 10 nM siRNA: transporter gene targets
Summary of the method: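 Growth read-out: cellular DNA quantified with SYBR Green I (485/535 nm) 96 h after transfection, cells frozen, thawed and lysed in PBS/1% Triton X-100, pH 7. Cells (A549, 5×10^3 cells/cm^2) received 10 nM siRNA by RNAiMAX; non-specific siRNA served as control; triplicate wells averaged.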

[2] = tested on: target transcript mRNA in A549 cells; experiment: Level of mRNA of target transcript in A549 cells by quantitative RT-PCR (Tables 12 and 13); type: cell-based, human; details: 24 h post-transfection; for mRNA knockdown of transporter gene target transcript, 0.1 nM: 0.1 nM siRNA; for mRNA knockdown of transporter gene target transcript, 1 nM: 1 nM siRNA
Summary of the method: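 Target mRNA was measured by SYBR Green quantitative RT-PCR using random-primed cDNA, normalised to HPRT and Lamin. Samples came from A549 cells 24 h post-transfection with 0.1, 1.0 or 10 nM siRNA.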

SEQ ID NO: 4899: siRNA targeting SLC2A12 (GLUT12) (chain 1 TTAGCAAGGATGCTGAGGTCGTCTC; chain 2 UUAGCAAGGAUGCUGAGGUCGUCUC; Antisense strand given in DNA and RNA notation, chemistry not given here; one strand in two spellings)
Growth Inhibition in A549 cells by 10 nM siRNA [1]: − (no growth inhibition)
mRNA knockdown of transporter gene target transcript, 0.1 nM [2]: ++ (70-90% mRNA knockdown)
mRNA knockdown of transporter gene target transcript, 1 nM [2]: ++ (70-90% mRNA knockdown)

SEQ ID NO: 4891: siRNA targeting SLC1A5 (ASCT2) (chain 1 TCTACATTGAGGACGGTACAGGACC; chain 2 UCUACAUUGAGGACGGUACAGGACC; Antisense strand given in DNA and RNA notation, chemistry not given here; one strand in two spellings)
Growth Inhibition in A549 cells by 10 nM siRNA [1]: − (no growth inhibition)
mRNA knockdown of transporter gene target transcript, 0.1 nM [2]: ++ (70-90% mRNA knockdown)
mRNA knockdown of transporter gene target transcript, 1 nM [2]: ++ (70-90% mRNA knockdown)

SEQ ID NO: 4903: siRNA targeting SLC7A5 (LAT1) (chain 1 ACGAAATTCAAGTAATTCCATCCTC; chain 2 ACGAAAUUCAAGUAAUUCCAUCCUC; Antisense strand given in DNA and RNA notation, chemistry not given here; one strand in two spellings)
Growth Inhibition in A549 cells by 10 nM siRNA [1]: − (no growth inhibition)
mRNA knockdown of transporter gene target transcript, 0.1 nM [2]: ++ (70-90% mRNA knockdown)
mRNA knockdown of transporter gene target transcript, 1 nM [2]: +++ (>90% mRNA knockdown)

SEQ ID NO: 4925: siRNA targeting SLC25A1 (CIC) (chain 1 TAATCACATCCAGAGGAGTGTTTCC; chain 2 UAAUCACAUCCAGAGGAGUGUUUCC; chemistry not given here; one strand in two spellings)
Growth Inhibition in A549 cells by 10 nM siRNA [1]: − (no growth inhibition)
mRNA knockdown of transporter gene target transcript, 0.1 nM [2]: ++ (70-90% mRNA knockdown)
mRNA knockdown of transporter gene target transcript, 1 nM [2]: ++ (70-90% mRNA knockdown)

SEQ ID NO: 4896: siRNA targeting SLC2A5 (GLUT5) (chain 1 AAGTCTTCCATGAATTCACCGGTCC; chain 2 AAGUCUUCCAUGAAUUCACCGGUCC; Antisense strand given in DNA and RNA notation, chemistry not given here; one strand in two spellings)
Growth Inhibition in A549 cells by 10 nM siRNA [1]: − (no growth inhibition)
mRNA knockdown of transporter gene target transcript, 0.1 nM [2]: − (<50% mRNA knockdown)
mRNA knockdown of transporter gene target transcript, 1 nM [2]: − (<50% mRNA knockdown)

SEQ ID NO: 4971: siRNA targeting ABCC4 (MRP4) (chain 1 CAATAATGGTGTTCAATCTGTGTGC; chain 2 CAAUAAUGGUGUUCAAUCUGUGUGC; chemistry not given here; one strand in two spellings)
Growth Inhibition in A549 cells by 10 nM siRNA [1]: − (no growth inhibition)
mRNA knockdown of transporter gene target transcript, 0.1 nM [2]: − (<50% mRNA knockdown)
mRNA knockdown of transporter gene target transcript, 1 nM [2]: ++ (70-90% mRNA knockdown)

SEQ ID NO: 4947: siRNA targeting ATP2B4 (PMCA4) (chain 1 ATTACGCACAGCCTGATAATCCTGC; chain 2 AUUACGCACAGCCUGAUAAUCCUGC; chemistry not given here; one strand in two spellings)
Growth Inhibition in A549 cells by 10 nM siRNA [1]: − (no growth inhibition)
mRNA knockdown of transporter gene target transcript, 0.1 nM [2]: ++ (70-90% mRNA knockdown)
mRNA knockdown of transporter gene target transcript, 1 nM [2]: ++ (70-90% mRNA knockdown)

SEQ ID NO: 4898: siRNA targeting SLC2A12 (GLUT12) (chain 1 TATTGTTGTTGGTTGACAGGTTTCC; chain 2 UAUUGUUGUUGGUUGACAGGUUUCC; Antisense strand given in DNA and RNA notation, chemistry not given here; one strand in two spellings)
Growth Inhibition in A549 cells by 10 nM siRNA [1]: − (no growth inhibition)
mRNA knockdown of transporter gene target transcript, 0.1 nM [2]: +++ (>90% mRNA knockdown)
mRNA knockdown of transporter gene target transcript, 1 nM [2]: +++ (>90% mRNA knockdown)

SEQ ID NO: 4958: siRNA targeting ATP6V1E1 (chain 1 AGGAATTGCCTTCTGCACTGCAGCC; chain 2 AGGAAUUGCCUUCUGCACUGCAGCC; chemistry not given here; one strand in two spellings)
Growth Inhibition in A549 cells by 10 nM siRNA [1]: − (no growth inhibition)
mRNA knockdown of transporter gene target transcript, 0.1 nM [2]: + (50-70% mRNA knockdown)

SEQ ID NO: 4954: siRNA targeting ATP6V1B2 (chain 1 TTTGGATTTCTTTACCAAACCAGCC; chain 2 UUUGGAUUUCUUUACCAAACCAGCC; chemistry not given here; one strand in two spellings)
Growth Inhibition in A549 cells by 10 nM siRNA [1]: − (no growth inhibition)
mRNA knockdown of transporter gene target transcript, 0.1 nM [2]: + (50-70% mRNA knockdown)
mRNA knockdown of transporter gene target transcript, 1 nM [2]: + (50-70% mRNA knockdown)

SEQ ID NO: 4972: siRNA targeting ABCC4 (MRP4) (chain 1 AAATAGTTAAGGTCGAGGGCTGTCC; chain 2 AAAUAGUUAAGGUCGAGGGCUGUCC; chemistry not given here; one strand in two spellings)
Growth Inhibition in A549 cells by 10 nM siRNA [1]: − (no growth inhibition)
mRNA knockdown of transporter gene target transcript, 0.1 nM [2]: − (<50% mRNA knockdown)
mRNA knockdown of transporter gene target transcript, 1 nM [2]: ++ (70-90% mRNA knockdown)

SEQ ID NO: 4978: siRNA targeting ABCB1 (MDR1) (chain 1 TTGGTACTAAGCTTTCTGTCTTGGG; chain 2 UUGGUACUAAGCUUUCUGUCUUGGG; chemistry not given here; one strand in two spellings)
Growth Inhibition in A549 cells by 10 nM siRNA [1]: − (no growth inhibition)
mRNA knockdown of transporter gene target transcript, 0.1 nM [2]: − (<50% mRNA knockdown)
mRNA knockdown of transporter gene target transcript, 1 nM [2]: − (<50% mRNA knockdown)

SEQ ID NO: 4897: siRNA targeting SLC2A5 (GLUT5) (chain 1 TTACAGACCACAGCAACGTCAAGGG; chain 2 UUACAGACCACAGCAACGUCAAGGG; Antisense strand given in DNA and RNA notation, chemistry not given here; one strand in two spellings)
Growth Inhibition in A549 cells by 10 nM siRNA [1]: ++ (inhibits by at least 75%)
mRNA knockdown of transporter gene target transcript, 0.1 nM [2]: +++ (>90% mRNA knockdown)
mRNA knockdown of transporter gene target transcript, 1 nM [2]: +++ (>90% mRNA knockdown)

SEQ ID NO: 4909: siRNA targeting SLC3A2 (4F2hc) (chain 1 AAGAGCATCAGCTGGTAGAGTCGGA; chain 2 AAGAGCAUCAGCUGGUAGAGUCGGA; Antisense strand given in DNA and RNA notation, chemistry not given here; one strand in two spellings)
Growth Inhibition in A549 cells by 10 nM siRNA [1]: − (no growth inhibition)
mRNA knockdown of transporter gene target transcript, 0.1 nM [2]: + (50-70% mRNA knockdown)
mRNA knockdown of transporter gene target transcript, 1 nM [2]: ++ (70-90% mRNA knockdown)

SEQ ID NO: 4923: siRNA targeting SLC16A1 (MCT1) (chain 1 AAATAATTAGGACGACGCCACATGC; chain 2 AAAUAAUUAGGACGACGCCACAUGC; chemistry not given here; one strand in two spellings)
Growth Inhibition in A549 cells by 10 nM siRNA [1]: − (no growth inhibition)
mRNA knockdown of transporter gene target transcript, 0.1 nM [2]: + (50-70% mRNA knockdown)
mRNA knockdown of transporter gene target transcript, 1 nM [2]: ++ (70-90% mRNA knockdown)
mRNA knockdown of transporter gene target transcript, 10 nM ([2]; 10 nM siRNA): +++ (>90% mRNA knockdown)

SEQ ID NO: 4857: siRNA targeting ACLY (chain 1 ATAGTTTGCCAGCTCGTTGACACCC; chain 2 AUAGUUUGCCAGCUCGUUGACACCC; Both strands are one antisense strand in DNA/RNA notation, chemistry not given here, further chemistry not given here; one strand in two spellings)
Growth Inhibition in A549 cells [1]: + (inhibits by at least 50%)

SEQ ID NO: 4940: siRNA targeting ATP2B2 (PMCA2) (chain 1 TTCTTGTGCATGCTGGCCTTCTTCC; chain 2 UUCUUGUGCAUGCUGGCCUUCUUCC; chemistry not given here; one strand in two spellings)
Growth Inhibition in A549 cells by 10 nM siRNA [1]: ++ (inhibits by at least 75%)

SEQ ID NO: 4854: siRNA targeting FASN (chain 1 ATGAAGCTCACCCAGTTATCCTTCC; chain 2 AUGAAGCUCACCCAGUUAUCCUUCC; Both strands are one antisense strand in DNA/RNA notation, chemistry not given here, further chemistry not given here; one strand in two spellings)
Growth Inhibition in A549 cells [1]: − (no growth inhibition with any siRNA)

SEQ ID NO: 4849: siRNA targeting COX5A (chain 1 CAATTCCCAGGCATCTATATCTGGC; chain 2 CAAUUCCCAGGCAUCUAUAUCUGGC; chemistry not given here; one strand in two spellings)
Growth Inhibition in A549 cells [1]: − (no growth inhibition with any siRNA)

SEQ ID NO: 4828: siRNA targeting CAD (chain 1 TGTCTGAGAAGCCAAGACACTTGGC; chain 2 UGUCUGAGAAGCCAAGACACUUGGC; chemistry not given here; one strand in two spellings)
Growth Inhibition in A549 cells [1]: − (no growth inhibition with any siRNA)

— patent US20080145313A1, “Compositions and Methods for the Treatment and Prevention of Neoplastic Disorders” (Genesis Research & Development Corporation Limited, priority 2006, published 2008)
